Tests used:
weeds [1] = assay: Pre-emergence test, action against weeds; type: in vivo; settings: soil sprayed about 24 hours after sowing, rated after three weeks vs untreated control
Protocol: (§1) Solvent: 5 parts by weight of acetone
(§2) Emulsifier: 1 part by weight of alkylaryl polyglycol ether
To produce a suitable preparation of active compounds, 1 part by weight of active compound is mixed with the stated amount of solvent, the stated amount of emulsifier is added and the concentrate is diluted with water to the desired concentration.
Seeds of the test plants are sown in normal soil. After about 24 hours, the soil is sprayed with the preparation of active compounds such that the particular amounts of active compound desired are applied per unit area. The concentration of the spray liquor is chosen so that the particular amounts of active compound desired are applied in 1000 l of water/ha.
(§3) After three weeks, the degree of damage to the plants is rated in % damage in comparison to the development of the untreated control.
(§4) 0%=no effect (like untreated control)

weeds [2] = assay: Post-emergence test, activity against weeds; type: in vivo; settings: test plants of 5-15 cm sprayed, rated after three weeks vs untreated control
Protocol: as §1, §2
To produce a suitable preparation of active compound, 1 part by weight of active compound is mixed with the stated amount of solvent, the stated amount of emulsifier is added and the concentrate is diluted with water to the desired concentration.
Test plants of a height of 5-15 cm are sprayed with the preparation of active compound such that the particular amounts of active compound desired are applied per unit area. The concentration of the spray liquor is chosen so that the particular amounts of active compound desired are applied in 1000 l of water/ha.
as §3, §4

Row | melting point [°C] | SMILES | action against weeds (degree of damage to the plants) (weeds [1]) | activity against weeds (degree of damage to the plants) (weeds [2])
1 | 230 | CC(=O)Nc1cc(OCc2ccc(Cl)cc2)ccc1-n1c(=O)cc(C(F)(F)F)n(C)c1=O [Example 7, 1-[2-acetylamino-4-(4-chloro-phenylmethoxy)-phenyl]-3-methyl-4-trifluoromethyl-3,6-dihydro-2,6-dioxo-1(2H)-pyrimidine] | strong action | strong activity
2 | 193 | Nn1c(C(F)(F)F)cc(=O)n(-c2ccc(OCc3ccc(Cl)nc3)cc2[N+](=O)[O-])c1=O [Example 4, 3-amino-1-[4-(2-chloro-pyridin-5-yl-methoxy)-2-nitro-phenyl]-4-trifluoromethyl-3,6-dihydro-2,6-dioxo-1(2H)-pyrimidine] |  | 
3 | 237 | O=c1cc(C(F)(F)F)[nH]c(=O)n1-c1ccc(OCc2ccc(Cl)cc2)cc1[N+](=O)[O-] [Example 1, 1-[4-(4-chloro-phenylmethoxy)-2nitrophenyl]-4-trifluoromethyl-3,6-dihydro-2,6-dioxo-1(2H)-pyrimidin] |  | 
4 | 166 | Cn1c(C(F)(F)F)cc(=O)n(-c2ccc(OCc3ccc(Cl)cc3)cc2N)c1=O [Example 5, 1-[2-amino-4-(4-chloro-phenylmethoxy)-phenyl]-3-methyl-4-trifluoromethyl-3,6-dihydro-2,6-dioxo-1(2H)-pyrimidine] | strong action | strong activity
5 | 159 | Cn1c(C(F)(F)F)cc(=O)n(-c2ccc(OCc3ccc(Cl)cc3)cc2[N+](=O)[O-])c1=O [Example 3, 1-[4-(4-chloro-phenylmethoxy)-2-nitrophenyl]-3-methyl-4-trifluoromethyl-3,6-dihydro-2,6-dioxo-1(2H)-pyrimidine] | strong action | 
6 | 209 | O=c1cc(C(F)(F)F)[nH]c(=O)n1-c1ccc(OCc2ccc(Cl)nc2)cc1[N+](=O)[O-] [Example 2, 1-[4-(2-chloro-pyridin-5-yl-methoxy)-2-nitrophenyl]-4-trifluoromethyl-3,6-dihydro-2,6-dioxo-1(2H)-pyrimidine] |  | 

— patent US6432879B1, “Substituted phenyl uracils” (Bayer Aktiengesellschaft, priority 1997, dated 2002)
